Results: patent US10155802B2, “Locally-active anticoagulants and anti-inflammatory agents” (priority 2011, dated 2018)
Read-outs that look alike come from different tables or passages of the source. No end group written: not given here.

Columns and labels:
rat-tail collagen type I = target: T1, rat-tail collagen type I (Rattus norvegicus, UniProt P02454+P02466); assay: Peptide-collagen binding by reduction of collagen fibril alignment (deuterium coupling constant); details: collagen gelation under magnetic field in presence of peptide
T1 construct: purchased BD Bioscience; host or cells: rat tail (tissue-derived)
T1 sequence (P02454 152-1207): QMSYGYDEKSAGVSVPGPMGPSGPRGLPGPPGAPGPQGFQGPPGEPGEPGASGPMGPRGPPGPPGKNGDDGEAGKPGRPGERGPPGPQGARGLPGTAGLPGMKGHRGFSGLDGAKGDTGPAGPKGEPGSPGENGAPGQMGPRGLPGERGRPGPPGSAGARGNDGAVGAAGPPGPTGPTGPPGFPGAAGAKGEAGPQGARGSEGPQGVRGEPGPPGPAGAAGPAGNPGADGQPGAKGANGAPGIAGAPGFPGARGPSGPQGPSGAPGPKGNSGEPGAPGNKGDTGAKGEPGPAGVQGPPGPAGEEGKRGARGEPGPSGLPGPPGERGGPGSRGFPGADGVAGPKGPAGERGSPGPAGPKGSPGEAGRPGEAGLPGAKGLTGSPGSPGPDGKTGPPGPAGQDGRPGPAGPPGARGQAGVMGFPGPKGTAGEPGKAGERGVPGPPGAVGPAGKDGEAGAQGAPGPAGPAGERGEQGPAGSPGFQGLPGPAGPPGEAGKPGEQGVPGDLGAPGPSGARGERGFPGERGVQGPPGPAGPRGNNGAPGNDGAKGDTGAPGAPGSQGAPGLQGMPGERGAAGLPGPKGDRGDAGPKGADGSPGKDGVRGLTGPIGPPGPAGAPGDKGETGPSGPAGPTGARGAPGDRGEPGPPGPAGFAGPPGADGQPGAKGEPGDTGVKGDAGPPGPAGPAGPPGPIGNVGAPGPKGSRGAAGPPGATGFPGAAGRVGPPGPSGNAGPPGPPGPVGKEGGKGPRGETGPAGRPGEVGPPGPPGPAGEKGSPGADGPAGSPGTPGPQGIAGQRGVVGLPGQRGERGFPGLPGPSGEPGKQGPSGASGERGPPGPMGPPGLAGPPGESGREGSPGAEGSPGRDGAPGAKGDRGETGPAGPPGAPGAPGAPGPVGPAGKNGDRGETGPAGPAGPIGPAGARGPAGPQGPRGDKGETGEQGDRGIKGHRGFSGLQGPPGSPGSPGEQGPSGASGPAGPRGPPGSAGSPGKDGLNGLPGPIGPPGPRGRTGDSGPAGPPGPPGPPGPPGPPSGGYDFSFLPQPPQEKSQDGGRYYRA
T1 sequence (P02466 86-1125): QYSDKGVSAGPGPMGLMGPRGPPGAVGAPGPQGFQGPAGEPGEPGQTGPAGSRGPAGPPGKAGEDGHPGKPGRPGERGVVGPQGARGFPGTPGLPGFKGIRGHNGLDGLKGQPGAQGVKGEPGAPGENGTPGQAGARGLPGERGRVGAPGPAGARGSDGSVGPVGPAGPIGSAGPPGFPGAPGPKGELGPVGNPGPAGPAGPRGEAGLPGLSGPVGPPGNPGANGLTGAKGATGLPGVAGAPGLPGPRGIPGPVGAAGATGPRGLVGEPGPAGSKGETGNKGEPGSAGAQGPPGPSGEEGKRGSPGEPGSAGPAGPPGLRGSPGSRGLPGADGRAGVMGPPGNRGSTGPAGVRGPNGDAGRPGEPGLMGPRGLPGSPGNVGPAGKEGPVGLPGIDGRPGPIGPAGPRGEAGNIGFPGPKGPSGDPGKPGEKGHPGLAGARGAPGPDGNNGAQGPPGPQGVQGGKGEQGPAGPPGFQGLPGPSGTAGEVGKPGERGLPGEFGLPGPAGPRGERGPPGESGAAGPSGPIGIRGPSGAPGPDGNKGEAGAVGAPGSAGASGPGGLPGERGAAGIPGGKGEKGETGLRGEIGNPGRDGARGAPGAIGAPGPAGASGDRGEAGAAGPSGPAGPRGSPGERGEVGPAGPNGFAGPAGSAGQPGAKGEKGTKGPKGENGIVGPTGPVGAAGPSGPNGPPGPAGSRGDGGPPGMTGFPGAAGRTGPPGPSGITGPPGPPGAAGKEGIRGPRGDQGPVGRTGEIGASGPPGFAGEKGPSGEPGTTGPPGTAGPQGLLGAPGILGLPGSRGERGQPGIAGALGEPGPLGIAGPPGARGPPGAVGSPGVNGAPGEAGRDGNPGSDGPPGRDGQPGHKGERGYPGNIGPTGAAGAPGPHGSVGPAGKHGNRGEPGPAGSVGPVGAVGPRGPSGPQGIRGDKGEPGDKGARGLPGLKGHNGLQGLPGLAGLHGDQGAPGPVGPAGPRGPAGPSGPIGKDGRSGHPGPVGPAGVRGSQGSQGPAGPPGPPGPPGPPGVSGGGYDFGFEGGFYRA
Description: High-resolution proton NMR spectroscopy is used to illustrate the behavior of the linker peptides […] (SEQ ID NO: 2 or gb1), […] (SEQ ID NO: 3 or trpzip6), […] (SEQ ID NO: 4 or trpzip5) and […] (SEQ ID NO: 5 or trpzip4) in aqueous solutions. The peptides were synthesized using standard Fmoc chemistry and purified by reverse-phase HPLC. Their identity was confirmed by mass-spectroscopy and NMR spectroscopy. For NMR studies, a volume of (400-X) μL of a peptide dissolved in pure water was mixed with 50 μL of a 10×PBS (phosphate-buffered saline) supplemented by sodium phosphate to a final concentration of 50 mM and with 50 μL of deuterated water (D2O) to form the reference sample (where X=0) and with a certain volume (X μL) of rat-tail collagen type I (at 3.6 to 4 mg/ml in 0.02 N acetic acid from BD Bioscience), (where X is adjusted to achieve the desired final concentration of collagen), with 50 μL of the 10× modified PBS and with 50 μL of deuterated water (D2O) to form the peptide-collagen complex. The pH value of the reference peptide samples was adjusted to match the pH of the final peptide-collagen complex in order to facilitate NMR spectral comparison.
The peptide-collagen solutions were subjected to gelation under magnetic field guidance (see Example 7) followed by the measurement of fibril alignment (Ma 2008) as a semi-quantitative indication of peptide-collagen binding. […]

[1] = estimated (Cochran 2001), cited from earlier work
[2] = Thermal unfolding of hairpin linkers (Tm, unfolded population punfold); format: physicochemical; details: calculated, two-state unfolding
Description: Assuming a two-state unfolding of the trpzip linkers, the unfolded populations punfold=popen (Table 3) can be calculated using reported thermal characteristics of isolated trpzip peptides (Cochran 2001). It is important (Cochran 2001) to take into consideration bulk temperature dependences of the enthalpy and entropy differences between folded and unfolded states of trpzip peptides (Privalov 1997). Disregard for the appreciable ΔCp difference between folded and unfolded species would lead to particularly large underestimation of punfold for BTI5, since the bulk temperatures used for Ki determination were far from the trpzip4 folding transition point.
The punfold value for the BTI2 inhibitor was calculated using ΔH=11.6 kcal/mol and ΔS=39 cal/mol/K obtained in earlier studies of the gb1 peptide (Munoz 1997), which gives punfold values of 0.44 and 0.69 at 21° C. and 37° C., respectively. […] (Table 3). More importantly, all the KD values are close to those of BTI1 which contains a flexible (or random-coil) (GS)8 linker, which confirms the predicted small variation in KD values for bivalent ligands connected by flexible linkers of equal contour length and similar composition (Zhou 2001a; Zhou, 2001b).

Human α-thrombin = target: T2, Human α-thrombin (Homo sapiens, UniProt P00734); assay: Inhibition of thrombin-catalyzed hydrolysis of chromogenic substrate S-2366 (inhibition constant Ki); format: biochemical; details: for Kd: KD (dissociation constant of open species = Ki x popen); for Ki: pH 7.6
T2 construct: Human α-thrombin was purchased from Haemotologic Technologies, Inc., VT, USA; purchased Haemotologic Technologies, Inc., VT, USA

## GEWTYDDATKTFTVTE (not fully specified (C-terminus)) [gb1]
rat-tail collagen type I
  reduction of deuterium coupling constant (degree of collagen fibril alignment): not significantly affected
[1]; 21° C.
  population of unfolded species, non-zero ΔCp taken into account: 0.7
[1]; 37° C.
  population of unfolded species, non-zero ΔCp taken into account: 0.85

## CC[C@H](C)[C@H](NC(=O)[C@H](CCC(=O)O)NC(=O)[C@H](CCC(=O)O)NC(=O)[C@H](Cc1ccccc1)NC(=O)[C@H](CC(=O)O)NC(=O)CNC(=O)[C@H](CO)NC(=O)CNC(=O)[C@H](CO)NC(=O)CNC(=O)[C@H](CO)NC(=O)CNC(=O)[C@H](CO)NC(=O)CNC(=O)[C@H](CO)NC(=O)CNC(=O)[C@H](CO)NC(=O)CNC(=O)[C@H](CO)NC(=O)CNC(=O)[C@H](CO)NC(=O)CNC(=O)[C@H]1CCCCN1C(=O)[C@H](CCCNC(=N)N)NS(=O)(=O)c1ccc(C(C)(C)C)cc1)C(=O)N1CCC[C@H]1C(=O)N[C@@H](CCC(=O)O)C(=O)N[C@@H](CCC(=O)O)C(=O)N[C@@H](Cc1ccc(O)cc1)C(=O)N[C@@H](CC(C)C)C(=O)N[C@@H](CCC(N)=O)C(=O)O [BTI1]
[2]; T = 21° C.
  punfold (population of unfolded/open linker): 1
[2]; T = 37° C.
  punfold (population of unfolded/open linker): 1
Human α-thrombin; T = 21° C.
  Kd: 0.53 ± 0.03 nM
Human α-thrombin; T = 37° C.
  Kd: 1.3 ± 0.3 nM
Human α-thrombin; Ki, T = 21° C.
  Ki: 0.53 ± 0.03 nM
Human α-thrombin; T = 37° C., read-out: Ki
  Ki: 1.3 ± 0.3 nM
